Assay results reported in patent US5866558A, “6-alkynyl steroids” (Regents of the University of Minnesota, priority 1997, dated 1999).
Where “and” joins values, the source holds several entries; their conditions need not be identical. Identical values can stand only once. Like-named read-outs stand apart in the source and are kept apart here.

Columns and labels:
aromatase [1] = target: T1, aromatase (Homo sapiens, UniProt P11511); test: biochemical; format: biochemical; design: Microsomes were obtained from human placentas after normal deliveries; from tissue; host or cells: human placenta, microsomes (washed twice, lyophilized)
T1 sequence (P11511 1-503): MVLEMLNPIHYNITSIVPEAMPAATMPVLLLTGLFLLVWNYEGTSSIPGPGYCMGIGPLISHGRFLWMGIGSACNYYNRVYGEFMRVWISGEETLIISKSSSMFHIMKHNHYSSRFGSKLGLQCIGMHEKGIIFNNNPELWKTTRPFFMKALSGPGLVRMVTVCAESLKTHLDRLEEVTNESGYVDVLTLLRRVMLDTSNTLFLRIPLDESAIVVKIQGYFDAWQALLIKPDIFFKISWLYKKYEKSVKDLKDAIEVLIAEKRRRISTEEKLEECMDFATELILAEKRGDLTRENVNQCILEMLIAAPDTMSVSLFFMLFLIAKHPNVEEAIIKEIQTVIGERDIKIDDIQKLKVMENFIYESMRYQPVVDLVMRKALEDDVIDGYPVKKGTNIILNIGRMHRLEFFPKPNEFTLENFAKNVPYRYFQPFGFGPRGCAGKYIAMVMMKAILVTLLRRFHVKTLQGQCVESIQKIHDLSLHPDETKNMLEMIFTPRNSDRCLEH
Protocol: (§1) Test A. Enzyme Affinity Assay
(§2) Microsomes were obtained from human placentas after normal deliveries and prepared as described previously (Ryan, K. J. "Biological aromatization of steroids" J Biol. Chem. 1959, 234, 266-272). Following isolation of the microsomal pellets (washed twice), they were lyophilized and stored at -20° C.

aromatase [2] = target: T1, aromatase; format: biochemical; design: Microsomes were obtained from human placentas after normal deliveries; from tissue; host or cells: human placenta, microsomes (washed twice, lyophilized)
[3] = Incubation with rat liver homogenates (prodrug dehydration); format: in vitro ADME; settings: gives compound (4)
Description: Accordingly, the invention includes a compound of formula III, wherein R to R^5 are defined as above; or a pharmaceutically acceptable salt thereof. The invention also includes a pharmaceutical composition comprising a compound of formula III; or a pharmaceutically acceptable salt thereof; and a pharmaceutically acceptable diluent or carrier. Because alcohols of formula III are capable of acting as prodrugs for compounds of formula I, it may be advantageous to use an alcohol of formula III in place of a corresponding compound of formula I in any of the methods disclosed herein. Accordingly, the invention includes a method for treating a disease in a human or other mammal in need thereof in which aromatase has been implicated and inhibition of its action is desired, comprising administering to said human or mammal an effective amount of a compound of formula III; or a pharmaceutically acceptable salt thereof. The invention also includes a method for inhibiting aromatase in a mammal comprising administering to said mammal an effective amount of a compound of formula III; or a pharmaceutically acceptable salt thereof.

aromatase [4] = target: T1, aromatase; test: Test C. Ki Determination / enzyme inactivation kinetics (Kitz and Wilson); settings: for T1/2 of enzyme inhibition / KI (inactivation): Table 2; for KI (inactivation): read-out: App. Ki(inact), apparent Ki for inactivation; for kinact: read-out: kcat
aromatase [5] = target: T1, aromatase; test: Aromatase inhibition, overall results of tests A, B, and C; format: biochemical; design: Microsomes were obtained from human placentas after normal deliveries; from tissue; host or cells: human placenta, microsomes (washed twice, lyophilized)
Protocol: as §1, §2
Test B. Evaluation of Time-Dependent Inhibition
This determination requires measurements at initial velocities of enzyme reaction. The enzyme activity is determined following different preincubation times at various inhibitor concentrations when assayed at a substrate concentration of at least ten times the Km of androstenedione.

[6] = substrate: C[C@]12CCC(=O)C=C1CC[C@@H]1[C@@H]2CC[C@]2(C)C(=O)CC[C@@H]12; test: purified protein, by the assay type; settings: other: natural substrate

C[C@]12CCC(=O)C(O)=C1CC[C@@H]1[C@@H]2CC[C@]2(C)C(=O)CC[C@@H]12 [4-Hydroxy AD, 4-hydroxyandrostenedione]
IC50 (aromatase [1]; IC50): 250 nM
Ki (aromatase [1]; read-out: Ki (apparent)): 40.8 nM
Type of Inhibition (aromatase [2]): Irreversible/Inactivation

C#CC[C@@H]1C[C@H]2[C@@H]3CCC(=O)[C@@]3(C)CC[C@@H]2[C@@]2(C)CCC(=O)C[C@]12O [compound (3)]
dehydration in the presence of rat liver homogenates [3]: found to dehydrate in the presence of the homogenates to give compound (4)

C[C@]12C=CC(=O)C=C1C=C[C@@H]1[C@@H]2CC[C@]2(C)C(=O)CC[C@@H]12 [1,4,6-ATD, androst-1,4,6-triene-3,17-dione]
Ki (aromatase [1]; Table 1, apparent Ki, read-out: Ki (apparent)): 136 nM
IC50 (aromatase [1]; Table 1, human placental microsomes, read-out: IC50): 890 nM
Type of Inhibition (aromatase [2]; Table 1): Irreversible/Inactivation

C#CC[C@@H]1C[C@@H]2[C@H](CC[C@]3(C)C(=O)CC[C@@H]23)[C@H]2CCC(=O)C=C12 [6β-Propargyl ED, 6β-Propargyl-4-estrene-3,17-dione]
IC50 (aromatase [1]; IC50): 98 nM
Ki (aromatase [1]; Ki (apparent)): 43.5 nM
T1/2 of enzyme inhibition (aromatase [4]): 9.75 min
KI (inactivation) (aromatase [4]): 15.4 nM
kinact (aromatase [4]): 0.0012 s⁻¹
Type of Inhibition (aromatase [2]): Irreversible/Inactivation

C#CC[C@H]1C[C@@H]2[C@H](CC[C@]3(C)C(=O)CC[C@@H]23)[C@@]2(C)CCC(=O)C=C12 [6α-propynyl compound, 6α-(2-propynyl)androst-4-ene-3,17-dione]
enzyme affinity compared with other known inhibitors (aromatase [1]): greater enzyme affinty than other known inhibitors

C#CC[C@@H]1C[C@@H]2[C@H](CC[C@]3(C)C(=O)CC[C@@H]23)[C@@]2(C)CCC(=O)C=C12 [6β-Propargyl AD, 6β-Propargyl-4-androstene-3,17-dione]
Ki (aromatase [1]; Ki (apparent)): 9.8 nM and 87.5 nM
T1/2 of enzyme inhibition (aromatase [4]): 7.7 min
KI (inactivation) (aromatase [4]): 46.8 nM
kinact (aromatase [4]): 0.0015 s⁻¹
irreversibility / mechanism of inhibition (aromatase [4]; test C): irreversibly bound to the enzyme
affinity for the enzyme site relative to natural substrate androstenedione (aromatase [4]; vs androstenedione Km): about five times greater
aromatase inhibitory properties, in words (aromatase [5]): superior to other known aromatase inhibitors

C#CC[C@]12CCC(=O)C=C1CC[C@@H]1[C@@H]2CC[C@]2(C)C(=O)CC[C@@H]12 [10β-Propargyl ED, 10-(2-propynyl)estr-4-ene-3,17-dione]
IC50 (aromatase [1]; IC50): 42 nM
Ki (aromatase [1]; Ki (apparent)): 26.7 nM
Type of Inhibition (aromatase [2]): Irreversible/Inactivation

C#CC[C@H]1C[C@@H]2[C@H](CC[C@]3(C)C(=O)CC[C@@H]23)[C@H]2CCC(=O)C=C12 [6α-Propargyl ED]
IC50 (aromatase [1]; IC50): 430 nM
Type of Inhibition (aromatase [2]): Reversible

B1: aromatase (Homo sapiens) (protein)
chain: T1 sequence (P11511 1-503)
Km [6]: 0.055 µM
